Test results taken from article PMC4176390 (Journal of Natural Products, 2014).

What was measured:
brevenal binding site [1] = assay: Fluorescent-ligand competition; parameters: species or system rat; conditions: for displacement of BODIPY FL-brevenal from synaptosomes (in words): BODIPY FL-brevenal 10 nM, competitors 1 pM to 10 μM
VSSCs = conditions: cited from earlier work
[2] = system: voltage-sensitive sodium channels (VSSCs); conditions: cited from earlier work
sheep = conditions: cited from earlier work
fish = conditions: cited from earlier work
brevenal binding site [3] = assay: Radioligand; conditions: read-out: Ki: radioligand assay; [3H]-brevenol, rat brain synaptosomes, mean ± SEM

PbTx-9
displacement of BODIPY FL-brevenal from synaptosomes (in words) (brevenal binding site [1]): None of the naturally occurring PbTx analogues were able to displace

COc1ccc(C(=O)O[C@H]2CC[C@@]3(C)[C@@H]4CC[C@H]5[C@]6(O)C[C@H](O)[C@@]7(O)[C@@H](CN8C[C@@H](C)CC[C@H]8[C@@]7(C)O)[C@]6(O)C[C@@]53O[C@]24O)cc1OC [veratridine]
displacement of BODIPY FL-brevenal from synaptosomes (in words) (brevenal binding site [1]): none of these ligands were able to displace

CC1(C)[C@H](C(=O)O[C@H](C#N)c2cccc(Oc3ccccc3)c2)[C@@H]1C=C(Br)Br [deltamethrin]
displacement of BODIPY FL-brevenal from synaptosomes (in words) (brevenal binding site [1]): none of these ligands were able to displace

C=C/C=C\CC[C@H]1O[C@H]2CC[C@@]3(C)O[C@H]4[C@@H](O)C[C@@]5(C)O[C@@H](CC/C=C(C)/C(C)=C/C=O)[C@@H](C)C[C@H]5O[C@@H]4C[C@@H]3O[C@@H]2CC[C@@]1(C)O [brevenal]
displacement of BODIPY FL-brevenal from synaptosomes (in words) (brevenal binding site [1]): competed for binding to synaptosomes | Ki (brevenal binding site [1]; read-out: Ki: fluorescent-ligand assay, BODIPY FL-brevenal 10 nM as ligand, rat brain synaptosomes, mean ± SEM): 170 ± 31 nM | effect on VSSCs in patch-clamp experiments (VSSCs): does not appear to have any effect | displacement of tritiated PbTx from synaptosomes [2]: competitively displace | mucociliary transport in sheep (sheep): increases mucociliary transport | toxicity to fish (fish): nontoxic at micromolar concentrations | Ki (brevenal binding site [3]): 149 ± 30 nM

CCN1C[C@]2(COC)[C@H](O)C[C@H](OC)[C@@]34[C@@H]5C[C@@]6(O)[C@H](OC(=O)c7ccccc7)[C@@H]5[C@@](OC(C)=O)([C@@H]([C@H](OC)[C@H]23)[C@@H]14)[C@@H](O)[C@@H]6OC [aconitine]
displacement of BODIPY FL-brevenal from synaptosomes (in words) (brevenal binding site [1]): none of these ligands were able to displace
